Source: publication PMC3769509 (Nuclear medicine and biology, 2013)
Where “and” joins values, the source holds several entries; their conditions need not be identical. Equal values may be shown once.

What was measured:
[1] = Ex vivo rat brain analysis after [11C]BA administration; format: in vivo; conditions: 5 min and 30 min after administration, data not shown
[2] = PET studies: brain pharmacokinetics; conditions: baboon, iv
[3] = Free fraction in plasma; format: in vitro ADME; conditions: baboon plasma
[4] = PET studies: biodistribution in peripheral organs; conditions: baboon, iv
[5] = Lipophilicity at pH 7.4; format: physicochemical
[6] = PET studies: plasma analysis of unchanged radiotracer; conditions: baboon, iv; for fraction of radioactivity in plasma as unmetabolized compound: 30 min after administration
[7] = epilepsy patients, after intravenous infusions; cited from earlier work
[8] = parent and/or labeled metabolites

| Compound | brain uptake of carbon-11 [2] | high uptake in vertebrae [4] | fraction of radioactivity in plasma as unmetabolized compound [6] [%] | % unbound in plasma [3] | uptake in heart [4, 8] | Log D at pH 7.4 [5] | further results |
| --- | --- | --- | --- | --- | --- | --- | --- |
| CCC[11C](=O)O [[^11C]BA, [^11C]Butyric Acid] | ~ 0.006 %ID/cc | high uptake |  | 82±0.4 (n=2) % | very low |  | intact [11C]BA fraction in brain [1]: very low; uptake in pancreas [4, 8]: relatively high and high; uptake in spleen [4, 8]: relatively high and high |
| O=[11C](O)CCCc1ccccc1 [[^11C]PBA, [^11C]-4-Phenylbutyric Acid] | ~ 0.006 %ID/cc |  |  | 1.5±0.7 (n=6) % | moderate | −0.20±0.03 (n=6) | uptake in liver [4, 8]: high |
| CCCC(CCC)[11C](=O)O [[^11C]VPA, [^11C]Valproic Acid] |  |  |  | 26±0.3 (n=2) % | exceptionally high | 0.26±0.03 (n=5) | intact fraction in plasma ([6]; over 90 min): > 90% |

More lines, main results first:

| brain uptake of carbon-11 [2] | high uptake in vertebrae [4] | fraction of radioactivity in plasma as unmetabolized compound [6] [%] | Compound | % unbound in plasma [3] | uptake in heart [4, 8] | Log D at pH 7.4 [5] | further results |
| --- | --- | --- | --- | --- | --- | --- | --- |
| < 0.006 %ID/cc and 0.004 %ID/cc | not observed | 98 | CCCC(CCC)C(=O)O [VPA, 2-propylpentanoic acid] |  | remarkably high |  | free VPA in plasma [7]: 9–15% |
| < 0.006 %ID/cc | not observed | 85 | O=C(O)CCCc1ccccc1 [PBA, 4-phenylbutyric acid] |  |  |  |  |
| < 0.006 %ID/cc |  |  | CCCC(=O)O [BA, n-butyric acid] |  |  |  |  |
